Experiment [1] has as its system SCC-15. Nature of the experiment: Cytotoxicity against human SCC15 cells assessed as reduction in cell viability at 50 uM after 24 hrs by resazurin reduction assay relative to control. Type of experiment: functional. (The colour change of resazurin is a common sign of viable cells or microbes.)
For experiment [2], the system named is SCC-15. Put plainly: Cytotoxicity against human SCC15 cells transfected with PPARalpha siRNA assessed as reduction in cell viability at 50 uM after 24 hrs by resazurin reduction assay. Type of experiment: functional, cell-based.
For experiment [3], the system named is SCC-15. Nature of the experiment: Cytotoxicity against human SCC15 cells transfected with PPARbeta siRNA assessed as reduction in cell viability at 50 uM after 24 hrs by resazurin reduction assay. Format: functional, cell-based.
Experiment [4] relates to SCC-15. Nature of the experiment: Cytotoxicity against human SCC15 cells transfected with PPARgamma siRNA assessed as reduction in cell viability at 50 uM after 24 hrs by resazurin reduction assay. Format: functional.
The subject of experiment [5] is SCC-15. Nature of the experiment: Induction of apoptosis in human SCC15 cells assessed as increase in caspase 3 activity at 50 uM after 24 hrs relative to control. Type of experiment: functional.
The test system of experiment [6] is SCC-15. Put plainly: Induction of apoptosis in human SCC15 cells transfected with PPARgamma siRNA assessed as increase in caspase 3 activity at 50 uM after 24 hrs relative to control. Type of experiment: functional.
Experiment [7] has as its system SCC-15. Nature of the experiment: Downregulation of PPARgamma mRNA expression in human SCC15 cells at 50 uM after 4 hrs by RTqPCR analysis relative to control. Type of experiment: functional.
Experiment [8] deals with SCC-15. Nature of the experiment: Induction of apoptosis in human SCC15 cells transfected with PPARbeta siRNA assessed as increase in caspase 3 activity at 50 uM after 24 hrs relative to control. Type of experiment: functional.
Experiment [9] relates to SCC-15. Put plainly: Cytotoxicity against human SCC15 cells assessed as increase in LDH release at 50 uM after 24 hrs by colorimetric assay relative to […]. Format: functional. A general note: LDH in the medium is a marker of cell lysis.
Experiment [10] deals with SCC-15. Put plainly: Cytotoxicity against human SCC15 cells transfected with PPARalpha siRNA assessed as increase in LDH release at 50 uM after 24 hrs by colorimetric assay. Type of experiment: functional, cell-based.
In experiment [11] the test system is SCC-15. Nature of the experiment: Cytotoxicity against human SCC15 cells transfected with PPARgamma siRNA assessed as increase in LDH release at 50 uM after 24 hrs by colorimetric assay relative to control. Format: functional, cell-based.
In experiment [12] the test system is SCC-15. Put plainly: Downregulation of PPARalpha mRNA expression in human SCC15 cells at 10 uM after 4 hrs by RTqPCR analysis relative to control. Format: functional. (In general: Real-time PCR tracks product formation cycle by cycle.)
Experiment [13] concerns SCC-15. Nature of the experiment: Downregulation of PPARbeta mRNA expression in human SCC15 cells at 10 uM after 4 hrs by RTqPCR analysis relative to control. Type of experiment: functional.
Experiment [14] concerns SCC-15. Nature of the experiment: Downregulation of PPARgamma mRNA expression in human SCC15 cells at 10 uM after 4 hrs by RTqPCR analysis relative to control. Type of experiment: functional.
Experiment [15] relates to SCC-15. Put plainly: Cytotoxicity against human SCC15 cells transfected with PPARbeta siRNA assessed as increase in LDH release at 50 uM after 24 hrs by colorimetric assay relative to control. Type of experiment: functional, cell-based.
Experiment [16] deals with SCC-15. Put plainly: Downregulation of PPARalpha mRNA expression in human SCC15 cells at 50 uM after 4 hrs by RTqPCR analysis relative to control. Type of experiment: functional.
In experiment [17] the test system is SCC-15. Nature of the experiment: Downregulation of PPARbeta mRNA expression in human SCC15 cells at 50 uM after 4 hrs by RTqPCR analysis relative to control. Format: functional.
Experiment [18] relates to SCC-15. Put plainly: Induction of apoptosis in human SCC15 cells transfected with PPARalpha siRNA assessed as increase in caspase 3 activity at 50 uM after 24 hrs relative to control. Format: functional, cell-based.

Calls of active or inactive are those of the source. The calls are words filed in the database; no cut-off is given here. A value given as a limit tells only on which side of the number the result lay.

Regarding `CCc1ccc(CCOc2ccc(CC3SC(=O)NC3=O)cc2)nc1` (stereo not given) [PIOGLITAZONE], the outcome in experiment [1] and in [5] was inactive. The outcome in experiment [2] and in [3] was Active. The Activity in experiment [4] is recorded as 31.42%; in [6] it was 43.03%; in [7], 17.33%; in [8] it was >27.52%.

Regarding `O=C(Cn1c2c(sc1=O)[C@@H]1c3ccccc3OC[C@H]1CS2)Nc1ccc(Cl)c(Cl)c1`, the Activity in [9] is 22.95%; in [1], 12.08%; in experiment [12], 20.63%; in experiment [13] it was 31.98%; in experiment [14] it was 22.96%. Besides, the outcome in experiment [10] was Active. Also, the result in experiment [11] and in experiment [4] was inactive.

`CN(CCOc1ccc(CC2SC(=O)NC2=O)cc1)c1ccccn1` (stereo not given) [ROSIGLITAZONE]: the outcome in experiment [1] was inactive. Further, the result in experiment [2] and in experiment [3] was Active. Also, the Activity in experiment [14] was 25.54%.

As to `CN(C)c1ccc(C2CC(c3ccccc3)=NN2C2=NC(=O)/C(=C3/C(=O)Nc4ccccc43)S2)cc1` (stereo not given), the Activity in experiment [9] turned out to be 44.97%; in experiment [1], 13.53%; in experiment [5], 177.42%; in [12], 28.26%; in experiment [16], 18.66%; in experiment [13] it was 31.43%. Moreover, the values for the Activity in [17], in experiment [14] and in experiment [7] were 31.92%, 24.79% and 15.27%, respectively. The outcome in [10] and in experiment [18] was Active. For the same compound, the result in experiment [15], in experiment [11], in [4] and in [6] was inactive.

As for `O=C1c2ccccc2C(=O)c2sc3nc(=O)sc-3cc21`, the Activity is 18.32% in experiment [1]; 43.55% in experiment [5]; 54.37% in [12]; 26.99% in [16]; 16.62% in experiment [13]; 45.91% in [14]. Further, the Activity in [7] worked out at 14.34%. For the same compound, the outcome in experiment [4] and in experiment [6] was inactive. The result in [18] was Active.

For the origin of these results see ChEMBL document CHEMBL4130496, “Anticancer properties of 4-thiazolidinone derivatives depend on peroxisome proliferator-activated receptor gamma (PPARγ)” (2017).
